In PubChem BioAssay (NCI):
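Cells were grown in 96-well plates and exposed to each compound for 48 hours at five concentrations; endpoints were interpolated linearly between bracketing concentrations, or set to the highest concentration if not reached. The concentration for full growth arrest is given as TGI.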

Experiments:
Assay in all cases: growth of human tumour cells (NCI), 48 h
NCI-H23 lung = tested on: NCI-H23 lung
EKVX NSCLC = tested on: EKVX NSCLC
SNB-78 CNS = tested on: SNB-78 CNS
DMS 273 small cell lung = tested on: DMS 273 small cell lung
NCI-H460 lung = tested on: NCI-H460 lung
SK-MEL-2 melanoma = tested on: SK-MEL-2 melanoma
OVCAR-3 ovarian = tested on: OVCAR-3 ovarian
MALME-3M melanoma = tested on: MALME-3M melanoma
A498 renal = tested on: A498 renal
K-562 leukemia = tested on: K-562 leukemia
LOX IMVI melanoma = tested on: LOX IMVI melanoma
U251 CNS = tested on: U251 CNS
RXF 393 renal = tested on: RXF 393 renal
DMS 114 small cell lung = tested on: DMS 114 small cell lung
SF-295 CNS = tested on: SF-295 CNS
NCI-H522 lung = tested on: NCI-H522 lung
IGROV1 ovarian = tested on: IGROV1 ovarian
SK-MEL-5 melanoma = tested on: SK-MEL-5 melanoma
M14 melanoma = tested on: M14 melanoma
HL-60(TB) leukemia = tested on: HL-60(TB) leukemia
RPMI-8226 leukemia = tested on: RPMI-8226 leukemia
OVCAR-8 ovarian = tested on: OVCAR-8 ovarian
SF-539 CNS = tested on: SF-539 CNS
SF-268 CNS = tested on: SF-268 CNS
SNB-19 CNS = tested on: SNB-19 CNS
KM12 colon = tested on: KM12 colon
DLD-1 colon = tested on: DLD-1 colon
OVCAR-5 ovarian = tested on: OVCAR-5 ovarian
OVCAR-4 ovarian = tested on: OVCAR-4 ovarian
SK-MEL-28 melanoma = tested on: SK-MEL-28 melanoma
M19-MEL melanoma = tested on: M19-MEL melanoma
UO-31 renal = tested on: UO-31 renal
HCT-116 colon = tested on: HCT-116 colon
MOLT-4 leukemia = tested on: MOLT-4 leukemia
SN12C renal = tested on: SN12C renal
CCRF-CEM leukemia = tested on: CCRF-CEM leukemia
UACC-62 melanoma = tested on: UACC-62 melanoma
ACHN renal = tested on: ACHN renal
COLO 205 colon = tested on: COLO 205 colon
KM20L2 colon = tested on: KM20L2 colon
HT29 colon = tested on: HT29 colon
HCT-15 colon = tested on: HCT-15 colon
UACC-257 melanoma = tested on: UACC-257 melanoma
HOP-62 NSCLC = tested on: HOP-62 NSCLC
SK-OV-3 ovarian = tested on: SK-OV-3 ovarian
HOP-18 NSCLC = tested on: HOP-18 NSCLC
786-0 renal = tested on: 786-0 renal
LXFL 529 NSCLC = tested on: LXFL 529 NSCLC
A549 NSCLC = tested on: A549 NSCLC
TK-10 renal = tested on: TK-10 renal
SNB-75 CNS = tested on: SNB-75 CNS
SW-620 colon = tested on: SW-620 colon

With CN(C)CC(C)(C)C(/C=C/c1ccccc1)=N\Nc1ccccc1 the TGI (NCI-H23 lung) was 23.5 µM, the TGI (EKVX NSCLC) was 16.4 µM and the TGI (SNB-78 CNS) was 26.8 µM. It also gave a TGI (DMS 273 small cell lung) of 11.2 µM, a TGI (NCI-H460 lung) of 17.8 µM and a TGI (SK-MEL-2 melanoma) of 31 µM. It also gave a TGI (OVCAR-3 ovarian) of 14 µM, a TGI (MALME-3M melanoma) of 26.6 µM and a TGI (A498 renal) of 37.9 µM. The TGI (K-562 leukemia) was 0.828 µM, the TGI (LOX IMVI melanoma) was 15.7 µM and the TGI (U251 CNS) was 13.4 µM. It also gave a TGI (RXF 393 renal) of 32.8 µM, a TGI (DMS 114 small cell lung) of 21.8 µM and a TGI (SF-295 CNS) of 0.907 µM. For the same molecule, the TGI (NCI-H522 lung) was 23.9 µM, the TGI (IGROV1 ovarian) was 17.9 µM and the TGI (SK-MEL-5 melanoma) was 20.7 µM. It also gave a TGI (M14 melanoma) of 20.3 µM, a TGI (HL-60(TB) leukemia) of 7.49 µM and a TGI (RPMI-8226 leukemia) of 19.4 µM. The TGI (OVCAR-8 ovarian) was 27.5 µM, the TGI (SF-539 CNS) was 0.897 µM and the TGI (SF-268 CNS) was 15.4 µM. The TGI (SNB-19 CNS) was over 100 µM, the TGI (KM12 colon) was 26.6 µM and the TGI (DLD-1 colon) was 11.6 µM. The TGI (OVCAR-5 ovarian) was 2 µM, the TGI (OVCAR-4 ovarian) was 17.9 µM and the TGI (SK-MEL-28 melanoma) was 10.8 µM. It also gave a TGI (M19-MEL melanoma) of 22.3 µM, a TGI (UO-31 renal) of 0.843 µM and a TGI (HCT-116 colon) of 15.7 µM. The TGI (MOLT-4 leukemia) was 17.3 µM, the TGI (SN12C renal) was 17.6 µM and the TGI (CCRF-CEM leukemia) was 16.2 µM. For the same molecule, the TGI (UACC-62 melanoma) was 1.07 µM, the TGI (ACHN renal) was 1.25 µM and the TGI (COLO 205 colon) was 11.3 µM. For the same molecule, the TGI (KM20L2 colon) was 0.0605 µM, the TGI (HT29 colon) was 27.9 µM and the TGI (HCT-15 colon) was 2.46 µM. The TGI (UACC-257 melanoma) was 23.4 µM, the TGI (HOP-62 NSCLC) was 64.7 µM and the TGI (SK-OV-3 ovarian) was 38.8 µM. For the same molecule, the TGI (HOP-18 NSCLC) was 73.1 µM, the TGI (786-0 renal) was 14.8 µM and the TGI (LXFL 529 NSCLC) was 0.446 µM. The TGI (A549 NSCLC) was 4.19 µM, the TGI (TK-10 renal) was 3.48 µM and the TGI (SNB-75 CNS) was 46.8 µM. It also gave a TGI (SW-620 colon) of 10.4 µM.
